The source of these data is patent EP1795539B1, “Cell penetrating peptides for intracellular delivery of molecules” (Centre National de la Recherche Scientifique, priority 2005, dated 2007).

Where two headings read alike, the source gives them in different places. Peptide text beside a SMILES is read from it.

In one assay the test system is HS-68 and Hela cells. Put plainly: Toxicity of CADY variants, MTT cell viability assay (Table 1). It counts as cell-based. The method, then: The toxicity of CADY peptides has been investigated on different cell lines. Cells were incubated in the presence of increasing concentrations of CADY (from 0.1 µM to 1 mM) for 12 hrs and cell viability was estimated using MTT assay.
(Formazan colour is commonly taken as a measure of viable cells.)

For the next assay, the system named is different cell lines. Type of assay: cell-based. The conditions noted are these: 12 h. The method, then:
• Figure 1 : Schematic representation of CADY cellular uptake mechanism. • Figure 2 : Structure of CADY in the interaction with the membrane. • (A) modelisation • (B) CD experiments - Far UV CD spectra were recorded on a JASCO J-810 spectro-polarimeter (JASCO Corporation, Tokyo, Japan) using a quartz cuvette with a path length of 1 mm. Spectra were corrected from the baseline buffer spectrum and smoothed with the JASCO software. Peptides were dissolved to a fixed concentration of 50 µM in water or in PBS. CD spectra were collected at 23°C and each spectrum represents the average of 4 scans. […] Binding of cargoes to CADY was monitored by steady state fluorescence spectroscopy. The intrinsic fluorescence associated to the Trp residues of CADY was used as sensitive probe. The fluorescence of CADY is centered at 340 nm upon excitation at 290 nm. […] The knockdown of the GAPDH at the protein level was quantified 48 hrs after transfection by Western blot analysis using polyclonal antibody (Ref. ABCAM GAPDH antibody - ab9385 rabbit polyclonal). […] The size of the particle was determined by light scattering and the knock down of GAPDH protein was quantified by Western blot analysis. • (B) role of the endosomal pathway on the efficiency of CADY-mediated siRNA delivery. […]

Assay [1] has as its system 5PC3 or Human H1299 adenocarcinoma cells. Put plainly: Intravenous injection of carrier/anti-cyclin B1 siRNA complexes, tumor growth. Type of assay: in vivo, NCR nude mice. The conditions noted are these: one intravenous injection, siRNA 10 µg, ratio 1:20.

`CC(=O)NCC(=O)N[C@@H](CC(C)C)C(=O)N[C@@H](Cc1c[nH]c2ccccc12)C(=O)N[C@@H](CCCNC(=N)N)C(=O)N[C@@H](C)C(=O)N[C@@H](CC(C)C)C(=O)N[C@@H](Cc1c[nH]c2ccccc12)C(=O)N[C@@H](CCCNC(=N)N)C(=O)N[C@@H](CC(C)C)C(=O)N[C@@H](CC(C)C)C(=O)N[C@@H](CCCNC(=N)N)C(=O)N[C@@H](CO)C(=O)N[C@@H](CC(C)C)C(=O)N[C@@H](Cc1c[nH]c2ccccc12)C(=O)N[C@@H](CCCNC(=N)N)C(=O)N[C@@H](CC(C)C)C(=O)N[C@@H](CC(C)C)C(=O)N[C@@H](Cc1c[nH]c2ccccc12)C(=O)N[C@@H](CCCCN)C(=O)N[C@@H](C)C(=O)NCCS` [CADY-1] (HELM PEPTIDE1{[ac].G.L.W.R.A.L.W.R.L.L.R.S.L.W.R.L.L.W.K.A.[SCCN[*:1]]}$$$$V2.0): the EC50 in the assay with HS-68 and Hela cells (free peptide, MTT, read-out: free EC50) is 400 µM; in the assay on different cell lines it was 500 µM.

On to `CC(C)CCC[C@@H](C)[C@H]1CC[C@H]2[C@@H]3CC=C4C[C@@H](OC(=O)NCC(=O)N[C@@H](CC(C)C)C(=O)N[C@@H](Cc5c[nH]c6ccccc56)C(=O)N[C@@H](CCCNC(=N)N)C(=O)N[C@@H](C)C(=O)N[C@@H](CC(C)C)C(=O)N[C@@H](Cc5c[nH]c6ccccc56)C(=O)N[C@@H](CCCNC(=N)N)C(=O)N[C@@H](CC(C)C)C(=O)N[C@@H](CC(C)C)C(=O)N[C@@H](CCCNC(=N)N)C(=O)N[C@@H](CO)C(=O)N[C@@H](CC(C)C)C(=O)N[C@@H](Cc5c[nH]c6ccccc56)C(=O)N[C@@H](CCCNC(=N)N)C(=O)N[C@@H](CC(C)C)C(=O)N[C@@H](CC(C)C)C(=O)N[C@@H](Cc5c[nH]c6ccccc56)C(=O)N[C@@H](CCCCN)C(=O)N[C@@H](C)C(=O)NCCS)CC[C@]4(C)[C@H]3CC[C@]12C` [CADY-S] (HELM PEPTIDE1{[CC(C)CCC[C@@H](C)[C@H]1CC[C@H]2[C@@H]3CC=C4C[C@@H](OC(=O)[*:2])CC[C@]4(C)[C@H]3CC[C@]12C].G.L.W.R.A.L.W.R.L.L.R.S.L.W.R.L.L.W.K.A.[SCCN[*:1]]}$$$$V2.0; N-terminus assumed), for which the tumor growth result in assay [1] was “fully abolish the tumor growth”. Moreover, in the assay with HS-68 and Hela cells (12 h), the EC50 is 200 µM.

What is called EC50 is the midpoint of the concentration-response curve.
